Reference: patent US20090105149A1, “Compounds comprising lpa” (ENKAM PHARMACEUTICALS A/S, priority 2003, published 2009)
Marks after values point to notes of the source that are not given here.

Key:
[1] = test system: cerebellar granule neurons (CGN); assay: TUNEL assay, DNA-fragmentation in KCl-deprived CGN; format: cell-based, rat; conditions: at 10-15 μg/ml; relative to apoptotic neurons without treatment
Procedure: The number of neurons with fragmented DNA was measured using the Apo-Alert apoptosis detection kit and the fraction of TUNEL-positive neurons was estimated by counting. Results from at least four independent experiments are shown as percentage of cells showing DNA-fragmentation relative to the total number of cells ±SEM with control cultures in low KCl set at 100%. • (a) Effect of depriving CGN cultures of high KCl on number of cells undergoing apoptosis. • (b) Effect of FGLd in apoptosis-induced CGN cultures.
24 hours after induction of apoptotic cell death, the cultures were fixed and the extent of DNA-fragmentation was measured using the ApoAlert apoptosis detection kit, essentially as described by the manufacturer. Briefly, blunt ends of double-stranded DNA molecules were enzymatically labelled with fluorescein-dUTP, and all the neurons were stained with propidium iodide at a concentration of 750 ng/ml. Images of at least 200 neurons from each group in each experiment were obtained using a BioRad Radiance laser scanning system 2000 coupled to a Nikon Eclipse TE 200 confocal microscope equipped with an oil immersion 60×1.4 NA objective (Nikon, Tokyo, Japan). The fraction of TUNEL-positive neurons was determined by counting.

hippocampal neurons = assay: Synapse formation, synaptophysin/GAP-43 double-immunostaining; format: cell-based, rat
Procedure: The effect of FGLd on synapse formation was further evaluated using double-immunostaining of neurites and synapses in primary embryonic (E19) hippocampal neurons grown in culture for 13 days. Cells were incubated with FGLd for 48 or 96 hours, before fixation and immunostaining. The synapses were detected by antibodies against synaptophysin and the neyrites were labelled by antibodies against the growth-associated protein-43 (GAP-43—also called B-50 or F1). The immunostaining was visualised and quantified by confocal fluorescence microscopy as described by Rønn et al. (2000) (op. cit.).

[2] = test system: organotypic hippocampal neuronal slice cultures (OHSC); assay: OGD, metabolic activity (MTS) in organotypic hippocampal slice cultures; format: cell-based, rat
Source text: In the present study it was investigated the effect of the FGL peptide on synaptic plasticity, neuronal function and vulnerability following oxygen and glucose deprivation (OGD) in organotypic hippocampal neuronal slice cultures (OHSC) from 7-day-old Wistar rats according to method of Stoppini et al. (1991) Neurosci Methods. 37:173-82 and primary cultures of dissociated hippocampal neurons from 1-day-old rats according to method of Maar et al. (1997) J Neurosci Res. 47:163-72. Primary cell cultures were maintained for 11-12 days and OHSC for 12-14 days prior to adding FGLd.
The primary cell cultures and OHSC were exposed to OGD for 10 and 20 minutes. Following OGD, the cultures were again supplied with oxygen and glucose and analysed at 1, 4 or 24 hour time point after introduction of OGD exposure. FGLd (or the control peptide FGLc) was added 24 hr before, immediately, or 1 hr or 24 hr after OGD. […]
In hippocampal neuronal cultures, FM 1-43 staining was used to evaluate pre-synaptic function (described above). Cell viability in both primary cell cultures and OHSC was measured using the […] [3-(4,5-dimethylthiazol-2-yl)-2,5-diphenyltetrazolium bromide] assay according to Malich et al, (1997) Toxicology. […] In, addition, cell viability in OHSC was measured using propidium iodide (PI) staining according to Laake et al. (1999) Brain Res Brain Res Protoc. […]

[3] = test system: rats treated with (25-35) β-amyloid fragment; assay: Light-dark Discriminating Y-maze with positive food reinforcement; format: in vivo, rat
Procedure: The present study employed a rat model, in which neurotoxicity and cognitive impairment were induced by the (25-35) β-amyloid peptide fragment (see Maurice T., et al. (1996) (Brain Res. 706:181-93) and Delobette S., et al. (1997) Eur J Pharmacol. 319:1-4). Short-term memory deficit induced by the (25-35) β-amyloid peptide fragment in rat is of special importance to study, as it resembles one of the clinical manifestations of Alzheimer's disease. Short-term memory deficit in rats was evaluated using three different behavioural tests: the Social Recognition (Kogan et al, (2000) Hippocampus 10:47-56), Open Field (Cerbone and Sadile, (1994) Neurosci Biobehav Rev. 18:497-518; Vianna et al, (2000) Learn Mem. 7:333-40) and Y-maze (Clayton & Williams, (2000) Neurobiol Learn Mem. 74:135-45) tests. […]
Behaviour of animals was evaluated using the Social Recognition test, the Open Field test or the Light-dark Discriminating γ-maze. On day 28-30 or day 51 after i.c.v. administration of the (25-35) β-amyloid fragment, the animals were sacrificed, and in selected studies, the brain tissue was collected, histological sections were immunostained with A-β specific antibodies and the amyloid-burden was calculated as a percentage of the A-βpositive area. In addition, the number of neurons in selected areas of brain-sections was calculated using a stereological approach.

rat pups [4] = assay: Surface Righting Reflex in rat pups; format: in vivo; conditions: intranasal 2.6 μg per pup at PND 1, 2, 3
Procedure: The number of litters of each treatment group was six. […] FGLcontrol as above.
Dose-Response study. The effect of intranasal administration of 0.026, 0.26 and 2.6 μg FGLd per day at post-natal day (PND) 1, 2 and 3 on performance of the Surface Righting Reflex by rat pups was evaluated.
(§1) Sensory Motor Control Development study.

rat pups [5] = assay: Negative Geotaxis Reflex in rat pups; format: in vivo; conditions: PND 6; intranasal 2.6 μg per pup at PND 1, 2, 3
Procedure: The number of litters of each treatment group was six. The results were analysed using one-way ANOVA (FPND6=5.14; PPND6=0.008). […] FGLcontrol as above.
as §1

rats = assay: Open Field test in normal rats; format: in vivo, rat; conditions: additional experiments
[6] = test system: cerebellar granule neurons (CGN); assay: Survival of CGN induced to undergo apoptosis by low KCl; conditions: for Neuronal Survival (% of Control): Low K+ (5 mM)
Procedure: Cerebella granular meurons (CGN) (e and f) from postnatal day 7 rats were grown at a density of 100,000 cells/cm^2 for 7 days on poly-L-lysine coated microtiter plates in the medium containing 40 mM KCl, then the medium was substituted to a 5 mM KCl containing medium supplemented with various concentrations of FGLd.
For the experiments cerebellar tissue was dissected in modified Krebs-Ringer solution kept on ice, and treated as described for the hippocampal neurons above. All cell cultures were incubated at 37° C. in a humidified atmosphere containing 5% CO2.
Primary cultures of CGN were plated at a density of 100,000 cells/cm^2 on poly-L-lysine coated 8-well permanox slides in Neurobasal-A medium (Gibco, BRL) supplemented with 2% (v/v) B27, 0.5% (v/v) glutamax, 100 U/ml penicillin, 100 μg/ml streptomycin and KCl, making the final concentration of KCl in the medium 40 mM. 24 hours after plating, cytosine-β-D-arabinofuranoside (Ara-C; Sigma-Aldrich) was added to a final concentration of 10 μM to avoid proliferation of glial cells, after which the neurons were allowed to differentiate for further six days at 37° C. Apoptotic cell death was induced by washing twice and changing the medium to Basal Medium Eagle (BME; Gibco BRL) supplemented with 1% (v/v) glutamine, 100 U/ml penicillin and 100 μg/ml streptomycin, 3.5 g D-glucose/l and 1% (v/v) sodium pyruvate (Gibco BRL) together with various concentrations of peptide. Thereby the concentration of potassium in the cultures was reduced to 5 mM KCl. Two days after induction of apoptosis, the cells were fixed with 4% formaldehyde and stained with Hoechst 33258 as described for the survival assay employing hippocampal neurons.

“FGLd: MAP-type dendrimer of FGL; dendrimeric tetramer of the FGL peptide (EVYVVAENQQGKSKA)” was tested, and the “reduction of number of apoptotic CGN (DNA-fragmentation), maximal rescue” value [1] was 40%, the “increase in the number of synaptophysin positive spots per 100 μm length of neurite” value (hippocampal neurons; 20 μg/ml for 48 and 96 hours) was “approximately 20%” and the “number of synaptophysin positive spots per 100 μm length of neurite” value (hippocampal neurons; 20 μg/ml for 48 hours, control 2.40) was 2.96. For the same substance, the “number of synaptophysin positive spots per 100 μm length of neurite” value (hippocampal neurons; 20 μg/ml for 96 hours, control 2.73) was 3.24, the “metabolic activity (MTS), treatment alone” value ([2]; no OGD) was “led to an increase in metabolic activity” and the “metabolic activity (MTS) after OGD” value ([2]; treated 24 hours prior to OGD, 1 h and 24 h after OGD) was “caused a normalization of the metabolic activity”. The number of errors ([3]; day 25, last day of training, sub-occipital, β-amyloid control 3.8) was 1.7, the number of errors ([3]; training days 21-24, vs β-amyloid fragment-treated control) was “no significant differences” and the “Surface Righting Reflex test, significance vs control and FGLcontrol groups” value (rat pups [4]; PND4, P<0.05) was “statistically significant effect”. For the same substance, the “Surface Righting Reflex performance” value (rat pups [4]; PND 5, vehicle 3.4) was 1.3 s, the “Negative Geotaxis Reflex test, significance vs control and FGLcontrol groups” value (rat pups [5]) was “statistically significant effects” and the “emotional or locomotor behaviour” value (rats) was “did not influence emotional or locomotor behaviour”. For the same substance, the “Neuronal Survival (% of Control)” value ([6]; CGN (PND 3-4), 1 μg/mL) was 131%* % of Control, the “Neuronal Survival (% of Control)” value ([6]; CGN (PND 3-4), 5 μg/mL) was 110%* % of Control and the “Neuronal Survival (% of Control)” value ([6]; CGN (PND 3-4), 10 μg/mL) was 132%* % of Control. For the same substance, the “Neuronal Survival (% of Control)” value ([6]; CGN (PND 3-4), 20 μg/mL) was 117%** % of Control, the “Neuronal Survival (% of Control)” value ([6]; CGN (PND 7-8), 20 μg/mL) was 175%* % of Control and the “maximal neuroprotection of CGN” value ([6]; at 1-10 μg/ml, controls grown at low KCl = 100%) was 135%.
